In article PMC7195640, “New Synthetic 3-Benzoyl-5-Hydroxy-2H-Chromen-2-One (LM-031) Inhibits Polyglutamine Aggregation and Promotes Neurite Outgrowth through Enhancement of CREB, NRF2, and Reduction of AMPKα in SCA17 Cell Models” (Oxidative Medicine and Cellular Longevity, 2020):

Experiments:
[1] = MTT cytotoxicity assay in uninduced TBP/Q79-GFP 293 cells; assay type: cell-based; settings: human
Method: (§1) Compound cytotoxicity was assessed by colorimetric assay measuring cell metabolic activity. Briefly, TBP/Q79-GFP 293 and SH-SY5Y cells were seeded on a 48-well plate (5 × 10^4/well), grown for 20 h, and treated with licochalcone A or LM compounds (0.1–100 μM). After one day, cell viability was measured based on reduction of 3,(4,5-dimethylthiazol-2-yl)-2,5-diphenyltetrazolium bromide (MTT), and the absorbance of the insoluble purple formazan product at OD 570 nm was read by a FLx800 fluorescence microplate reader (Bio-Tek, Winooski, VT, USA).

[2] = MTT cytotoxicity assay in uninduced TBP/Q79-GFP SH-SY5Y cells; assay type: cell-based; settings: human
Method: as §1

[3] = system: TBP/Q79-GFP-expressing SH-SY5Y cells; assay: TBP/Q79-GFP SH-SY5Y aggregation assay (also with shRNA knockdown or AICAR); assay type: cell-based, Human; settings: for polyQ aggregation / aggregation: SH-SY5Y cells; for reduction of aggregation: differentiated TBP/Q79-GFP SH-SY5Y cells, vs untreated
Method: (§2) On day 1, 2 × 10^4 of SH-SY5Y TBP/Q79-GFP cells were seeded on a 24-well plate with retinoic acid (10 μM; Sigma-Aldrich) added to induce neuronal differentiation. On day 2, the cells were treated with LM-031 or licochalcone A (100 nM) for 8 h and TBP/Q79-GFP expression was induced as described. On day 8, cells were stained with Hoechst 33342 (0.1 μg/mL) and the aggregation percentage and neurite outgrowth were assessed by high-content analysis as described. The morphologic differentiation of TBP/Q79-GFP-expressing cells was analyzed by using the Neurite Outgrowth Application Module (Molecular Devices).
(§3) To knockdown the expression of NRF2 and CREB in TBP/Q79-GFP SH-SY5Y cells, lentiviruses with short hairpin RNA (shRNA) targeting NRF2 (TRCN0000007558), CREB (TRCN0000226466), and a negative control scrambled (TRC2.Void) were obtained from the National RNAi Core Facility, Institute of Molecular Biology/Genomic Research Center, Academia Sinica, Taipei, Taiwan. On day 1, cells were plated on 6-well plates (8 × 10^5/well for protein analysis) or 24-well plates (2 × 10^4/well for neurite outgrowth analysis) in the presence of retinoic acid as described. On day 2, the cells were infected with lentivirus (multiplicity of infection: 3) in the presence of polybrene (8 μg/mL; Sigma-Aldrich) to increase infectivity. On day 3, the cells were pretreated with LM-031 or licochalcone A (100 nM) for 8 h; induction of TBP/Q79-GFP expression followed. On day 9, the cells were collected for NRF2 and CREB protein analysis or stained with Hoechst 33342 and analyzed for aggregation and neurite outgrowth as described.
(§4) AICAR (5-aminoimidazole-4-carboxamide 1-β-D-ribofuranoside) (Sigma-Aldrich), an analog of adenosine monophosphate (AMP), was used to stimulate AMP-dependent protein kinase (AMPK) activity. TBP/Q79-GFP SH-SY5Y cells were plated on 6-well or 24-well plates in the presence of retinoic acid as described. On day 2, the cells were pretreated with LM-031 or licochalcone A (100 nM) for 4 h; AICAR (0.1 mM) treatment and TBP/Q79-GFP induction followed. On day 8, the cells were collected for AMPKα and pAMPKα protein analysis or stained with Hoechst 33342 and analyzed for aggregation and neurite outgrowth as described.

[4] = system: TBP/Q79-GFP-expressing SH-SY5Y cells; assay: TBP/Q79-GFP SH-SY5Y neurite outgrowth assay (also with shRNA knockdown or AICAR); assay type: cell-based, Human; settings: for increased neurite outgrowth: vs untreated
Method: as §2, §3, §4

[5] = system: CREB, pCREB (S133); assay: Western blot of CREB and pCREB in TBP/Q79-GFP SH-SY5Y cells; assay type: cell-based, Human; settings: 100 nM; for pCREB/CREB (phosphor/total ratio), uninduced = 100%: induced SH-SY5Y cells, untreated induced 85%; for pCREB level, scrambled shRNA uninduced = 100%: scrambled shRNA-infected induced SH-SY5Y cells, untreated 81%
Method: (§5) Total proteins from TBP/Q79-GFP SH-SY5Y cells were obtained using a lysis buffer containing 50 mM Tris-HCl (pH 8.0), 150 mM NaCl, 1 mM EDTA (pH 8.0), 1 mM EGTA (pH 8.0), 0.1% SDS, 0.5% sodium deoxycholate, 1% Triton X-100, and a protease inhibitor cocktail (Sigma-Aldrich). After quantitation using a protein assay kit (Bio-Rad, Hercules, CA, USA), proteins (20 μg) were separated on 10−12% SDS-polyacrylamide gel electrophoresis and blotted onto polyvinylidene difluoride (PVDF) membranes (Sigma-Aldrich) by reverse electrophoresis. After blocking, the membrane was probed with CREB (1 : 1000; Santa Cruz Biotechnology, Santa Cruz, CA, USA), pCREB (S133) (1 : 1000; Santa Cruz Biotechnology), BCL2 (1 : 500; BioVision, Milpitas, CA, USA), GADD45B (1 : 1000; Abcam, Cambridge, MA, USA), BAX (1 : 500; BioVision), NRF2 (1 : 500; Santa Cruz Biotechnology), AMPKα (1 : 1000; Cell Signaling, Danvers, MA, USA), pAMPKα (T172) (1 : 1000; Cell Signaling), GAPDH (1 : 1000) (MDBio Inc., Taipei, Taiwan), or β-actin (1 : 5000; Millipore, Billerica, MA, USA) primary antibody at 4°C overnight. The immune complexes were detected using a horseradish peroxidase-conjugated goat anti-mouse or goat anti-rabbit IgG antibody (1 : 10000; GeneTex, Irvive, CA, USA) and a chemiluminescent substrate (Millipore).
as §3

[6] = system: GADD45B; assay: Western blot of GADD45B in TBP/Q79-GFP SH-SY5Y cells; assay type: cell-based, Human; settings: 100 nM, induced SH-SY5Y cells; untreated induced 66–70%
Method: as §5

[7] = system: BAX; assay: Western blot of BAX in TBP/Q79-GFP SH-SY5Y cells; assay type: cell-based, Human; settings: 100 nM, induced SH-SY5Y cells; untreated induced 156%
Method: as §5

[8] = system: NRF2; assay: Western blot of NRF2 in TBP/Q79-GFP SH-SY5Y cells; assay type: cell-based, Human; settings: 100 nM; for NRF2 protein level, uninduced = 100%: induced SH-SY5Y cells, untreated induced 72%; for NRF2 level, scrambled shRNA uninduced = 100%: scrambled shRNA-infected induced SH-SY5Y cells, untreated 54%
Method: as §5, §3

[9] = system: TBP/Q79-GFP-expressing 293 cells; assay: TBP/Q79 293 aggregation assay (high-content analysis of GFP fluorescence); assay type: cell-based, Human
Method: GFP fluorescence was evaluated to reflect TBP aggregation in TBP/Q79-GFP-expressing 293 cells. Briefly, cells were plated on 96-well (2 × 10^4/well) dishes, grown for 24 h and treated with different concentrations of licochalcone A or LM compounds (0.1 nM−100 μM) or a positive control suberoylanilide hydroxamic acid (SAHA, 100 nM) (Cayman Chemical, Ann Arbor, MI, USA). After 8 h, doxycycline (10 μg/mL) was added to the cells for 6 days to induce TBP/Q79-GFP expression. In addition, oxaliplatin (5 μM) (Sigma-Aldrich, St Louis, MO, USA) was included for TBP/Q79-GFP aggregate accumulation via blocking cell-cycle progression. On the eighth day, the cells were stained with Hoechst 33342 (0.1 μg/mL; Sigma-Aldrich) for 30 min, and cell images were automatically recorded (excitation/emission wavelengths of 482/536 nm for GFP and 377/447 nm for Hoechst 33342) by using an ImageXpress Micro Confocal High-Content Imaging System (Molecular Devices, Sunnyvale, CA, USA). Aggregation was determined by a Transfluor technology based on GFP fluorescence intensity. To quantify aggregation, the relative aggregation level in untreated cells was set as 100%. Aggregation was measured in wells containing ≥80% viable cells.

[10] = system: AMPKα, pAMPKα (T172); assay: Western blot of AMPKα and pAMPKα in TBP/Q79-GFP SH-SY5Y cells; assay type: cell-based, Human; settings: induced SH-SY5Y cells
Method: as §5, §4

[11] = 100 nM compound + AICAR 0.1 mM, AICAR alone 5.2%
[12] = 100 nM, no AICAR, no treatment 4.6%
[13] = 100 nM compound + AICAR 0.1 mM, SH-SY5Y cells, AICAR alone 17.2 μm
[14] = 100 nM, NRF2 shRNA, SH-SY5Y cells
[15] = 100 nM, differentiated TBP/Q79-GFP SH-SY5Y cells
[16] = 100 nM, differentiated TBP/Q79-GFP SH-SY5Y cells, untreated 21.1 μm
[17] = 100 nM, no AICAR, SH-SY5Y cells, no treatment 19.6 μm
[18] = 100 nM, scrambled shRNA, SH-SY5Y cells, no treatment 21.6 μm

C=CC(C)(C)c1cc(/C=C/C(=O)c2ccc(O)cc2)c(OC)cc1O [licochalcone A, reference compound]
IC50 at 24 h ([1]; uninduced TBP/Q79-GFP 293 cells, MTT, compounds 0.1−100 μM for 24 h, read-out: IC50 cytotoxicity): 53 µM | IC50 at 24 h ([2]; uninduced TBP/Q79-GFP SH-SY5Y cells, MTT, compounds 0.1−100 μM for 24 h, read-out: IC50 cytotoxicity): 57 µM | polyQ aggregation [3, 11]: 4.9% | aggregation ([3]; 100 nM, NRF2 shRNA): 5.5% | reduction of aggregation ([3]; 100 nM): 18–20% | polyQ aggregation [3, 12]: 3.6–3.7% | neurite outgrowth [4, 13]: 18.4 μm | neurite outgrowth [4, 14]: 17.8–18.1 μm | increased neurite outgrowth [4, 15]: 19−22% | neurite outgrowth [4, 16]: 25.1–25.6 μm | neurite outgrowth [4, 17]: 23.0–23.6 μm | neurite outgrowth [4, 18]: 23.8–24.6 μm | pCREB/CREB (phosphor/total ratio), uninduced = 100% [5]: 110% | pCREB level, scrambled shRNA uninduced = 100% [5]: 107–112% | GADD45B protein level, uninduced = 100% [6]: 104–105% | BAX protein level, uninduced = 100% [7]: 103% | NRF2 protein level, uninduced = 100% [8]: 96–100% | NRF2 level, scrambled shRNA uninduced = 100% [8]: 84–93%

O=C(c1ccccc1)c1cc2c(O)cccc2oc1=O [LM-031, 3-benzoyl-5-hydroxy-2H-chromen-2-one]
IC50 at 24 h [1]: > 100 µM | IC50 at 24 h [2]: > 100 µM | TBP/Q79-GFP aggregation (untreated cells = 100%) ([9]; 10 nM–10 μM, significantly better than SAHA 100 nM (82%)): 74–76% | polyQ aggregation [3, 11]: 4.0% | aggregation ([3]; 100 nM, NRF2 shRNA): 5.5% | reduction of aggregation ([3]; 100 nM): 18–20% | polyQ aggregation [3, 12]: 3.6–3.7% | neurite outgrowth [4, 13]: 21.6 μm | neurite outgrowth [4, 14]: 17.8–18.1 μm | increased neurite outgrowth [4, 15]: 19−22% | neurite outgrowth [4, 16]: 25.1–25.6 μm | neurite outgrowth [4, 17]: 23.0–23.6 μm | neurite outgrowth [4, 18]: 23.8–24.6 μm | pCREB/CREB (phosphor/total ratio), uninduced = 100% [5]: 110% | pCREB level, scrambled shRNA uninduced = 100% [5]: 107–112% | GADD45B protein level, uninduced = 100% [6]: 104–105% | BAX protein level, uninduced = 100% [7]: 103% | NRF2 protein level, uninduced = 100% [8]: 96–100% | NRF2 level, scrambled shRNA uninduced = 100% [8]: 84–93% | pAMPKα level, uninduced = 100% ([10]; 100 nM compound + AICAR 0.1 mM, AICAR alone 160%): 96% | phosphor/total ratio of AMPKα, uninduced = 100% ([10]; 100 nM, untreated induced 170%): 130% | pAMPKα level (phosphor/total ratio of AMPKα), uninduced = 100% ([10]; 100 nM, no AICAR, untreated induced 134%): 110%

Cc1ccc(/C=C/C(=O)c2c(O)c3ccccc3oc2=O)cc1 [LM-016]
IC50 at 24 h [1]: > 100 µM | IC50 at 24 h [2]: > 100 µM

O=C(CCCCCCC(=O)Nc1ccccc1)NO [SAHA, suberoylanilide hydroxamic acid, reference compound]
TBP/Q79-GFP aggregation (untreated cells = 100%) ([9]; 100 nM, Dox + oxaliplatin 6 days): 82%

COc1ccc(C(=O)/C=C/c2cc(Br)ccc2O)cc1 [LM-004]
IC50 at 24 h [1]: 45 µM | IC50 at 24 h [2]: 54 µM

NC(=O)c1ncn([C@@H]2O[C@H](CO)[C@@H](O)[C@H]2O)c1N [AICAR, 5-aminoimidazole-4-carboxamide 1-β-D-ribofuranoside]
aggregation ([3]; AICAR 0.1 mM alone, no treatment 4.6%): 5.2% | neurite outgrowth ([4]; AICAR 0.1 mM alone, SH-SY5Y cells, no treatment 19.6 μm): 17.2 μm | pAMPKα level, uninduced = 100% ([10]; AICAR 0.1 mM alone, without AICAR 134%): 160%

COc1cccc(/C=C/C(=O)c2ccc(O)cc2)c1O [LM-026]
IC50 at 24 h [1]: 53 µM | IC50 at 24 h [2]: 58 µM

COc1ccc(O)c(/C=C/C(=O)c2ccccc2)c1 [LM-006]
IC50 at 24 h [1]: 47 µM | IC50 at 24 h [2]: 56 µM
